Assay [1] has as its target Aldo-keto reductase family 1 member B1 (Rattus norvegicus, UniProt P07943). In words: Inhibition of aldose reductase in rat lens homogenates by fluorophotometer.
Assay [2] addresses Aldo-keto reductase family 1 member B1 (Rattus norvegicus) (UniProt P07943). In words: Inhibition of aldose reductase in rat lens homogenates at 30 uM by fluorophotometry.
The subject of assay [3] is Platelet. The experiment in a line: Inhibition of thrombin-induced platelet aggregation in washed rabbit platelets at 1.0 mM treated 2 mins before thrombin challenge by aggregometer. In kind it is functional. The conditions noted are these: Oryctolagus cuniculus.
For assay [4], the system named is Platelet. In words: Inhibition of thrombin-induced platelet aggregation in washed rabbit platelets at 0.5 mM treated 2 mins before thrombin challenge by aggregometer. It is filed as functional. The following applies: Oryctolagus cuniculus.
The subject of assay [5] is Platelet. The experiment in a line: Inhibition of thrombin-induced platelet aggregation in washed rabbit platelets at 0.1 mM treated 2 mins before thrombin challenge by aggregometer. In kind it is functional. The following applies: Oryctolagus cuniculus.

In assay [1], `COc1cc(-c2oc3cc(O)cc(O)c3c(=O)c2O[C@@H]2O[C@H](CO[C@@H]3O[C@@H](C)[C@H](O)[C@@H](O)[C@H]3O)[C@@H](O)[C@H](O)[C@H]2OC(C)=O)ccc1O` gave an IC50 of 9.8 µM.

In assay [1], `CC(=O)O[C@H]1[C@H](Oc2c(-c3ccc(O)c(O)c3)oc3cc(O)cc(O)c3c2=O)O[C@H](CO[C@@H]2O[C@@H](C)[C@H](O)[C@@H](O)[C@H]2O)[C@@H](O)[C@@H]1O` displayed an IC50 of 18 µM.

Turning to `C[C@@H]1O[C@@H](O[C@H]2[C@H](Oc3c(-c4ccc(O)c(O)c4)oc4cc(O)cc(O)c4c3=O)O[C@H](CO)[C@H](O)[C@@H]2O)[C@H](O)[C@H](O)[C@H]1O`, in assay [1], 18 µM corresponded to half-maximal inhibition (IC50).

Consider `C[C@@H]1O[C@@H](OC[C@H]2O[C@@H](Oc3c(-c4ccc(O)c(O)c4)oc4cc(O)cc(O)c4c3=O)[C@H](O)[C@@H](O)[C@@H]2O)[C@H](O)[C@H](O)[C@H]1O` [RUTIN], for which the IC50 in assay [1] came out at 13 µM.

On to `C[C@@H]1O[C@@H](OC[C@H]2O[C@@H](Oc3c(-c4ccc(O)c(O)c4)oc4cc(O)cc(O)c4c3=O)[C@H](O[C@@H]3O[C@@H](C)[C@H](O)[C@@H](O)[C@H]3O)[C@@H](O)[C@H]2O)[C@H](O)[C@H](O)[C@H]1O`, for which the inhibition in assay [2] is 40%. Besides, the IC50 in assay [1] is more than 30 µM.

In the case of `CC(=O)Oc1ccccc1C(=O)O` [ASPIRIN], testing at 1000 µM in the assay with Platelet [3] gave an inhibition of 53.5%. Moreover, in the assay on Platelet [4], the inhibition at 500 µM was determined as 39.4%. The compound further gave an inhibition at 100 µM in the assay on Platelet [5] of 15.8%.

As to `COc1cc(-c2oc3cc(O)cc(O)c3c(=O)c2O[C@@H]2O[C@@H](C)[C@H](O)[C@@H](O)[C@H]2O)ccc1O`, in assay [1], half-maximal inhibition (IC50) was put at 19 µM.

In general, IC50 refers to the point on the concentration scale where inhibition reaches its midpoint. Lower therefore signals greater potency in that assay. Broadly, the inhibition is the change of the read-out against control, counted positive when it falls. Read a high inhibition as strong suppression.
